Experimental data taken from US20230027026A1, “FUSED PYRIMIDINE COMPOUNDS, COMPOSITIONS AND MEDICINAL APPLICATIONS THEREOF” (JUBILANT BIOSYS LIMITED, priority 2019, published 2023).

Assays:
A431 cells = assay: Cellular proliferation (Alamar Blue) assay, A431; format: cell-based; conditions: Homo sapiens, A-431; A431 cells, 72 hr, Alamar Blue; read-out: A431 IC50
How it was run: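 Seventy-two-hour growth assay with 3-fold compound titration (final 10–0.0005 μM) and Alamar Blue fluorescence end point, ex 540/em 590 nm.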

[1] = target: HER2 (A775_G776insYVMA) expressing Ba/F3 stable cell line (Homo sapiens, UniProt P04626, DUP772-775, cells depend on it); assay: Cellular proliferation (Alamar Blue) assay, HER2 YVMA Ba/F3; format: cell-based; conditions: HER2 A775_G776insYVMA Ba/F3, 72 hr, read-out: YVMA IC50
HER2 (A775_G776insYVMA) expressing Ba/F3 stable cell line, sequence (P04626 with tags, fused parts or gaps DUP772-775): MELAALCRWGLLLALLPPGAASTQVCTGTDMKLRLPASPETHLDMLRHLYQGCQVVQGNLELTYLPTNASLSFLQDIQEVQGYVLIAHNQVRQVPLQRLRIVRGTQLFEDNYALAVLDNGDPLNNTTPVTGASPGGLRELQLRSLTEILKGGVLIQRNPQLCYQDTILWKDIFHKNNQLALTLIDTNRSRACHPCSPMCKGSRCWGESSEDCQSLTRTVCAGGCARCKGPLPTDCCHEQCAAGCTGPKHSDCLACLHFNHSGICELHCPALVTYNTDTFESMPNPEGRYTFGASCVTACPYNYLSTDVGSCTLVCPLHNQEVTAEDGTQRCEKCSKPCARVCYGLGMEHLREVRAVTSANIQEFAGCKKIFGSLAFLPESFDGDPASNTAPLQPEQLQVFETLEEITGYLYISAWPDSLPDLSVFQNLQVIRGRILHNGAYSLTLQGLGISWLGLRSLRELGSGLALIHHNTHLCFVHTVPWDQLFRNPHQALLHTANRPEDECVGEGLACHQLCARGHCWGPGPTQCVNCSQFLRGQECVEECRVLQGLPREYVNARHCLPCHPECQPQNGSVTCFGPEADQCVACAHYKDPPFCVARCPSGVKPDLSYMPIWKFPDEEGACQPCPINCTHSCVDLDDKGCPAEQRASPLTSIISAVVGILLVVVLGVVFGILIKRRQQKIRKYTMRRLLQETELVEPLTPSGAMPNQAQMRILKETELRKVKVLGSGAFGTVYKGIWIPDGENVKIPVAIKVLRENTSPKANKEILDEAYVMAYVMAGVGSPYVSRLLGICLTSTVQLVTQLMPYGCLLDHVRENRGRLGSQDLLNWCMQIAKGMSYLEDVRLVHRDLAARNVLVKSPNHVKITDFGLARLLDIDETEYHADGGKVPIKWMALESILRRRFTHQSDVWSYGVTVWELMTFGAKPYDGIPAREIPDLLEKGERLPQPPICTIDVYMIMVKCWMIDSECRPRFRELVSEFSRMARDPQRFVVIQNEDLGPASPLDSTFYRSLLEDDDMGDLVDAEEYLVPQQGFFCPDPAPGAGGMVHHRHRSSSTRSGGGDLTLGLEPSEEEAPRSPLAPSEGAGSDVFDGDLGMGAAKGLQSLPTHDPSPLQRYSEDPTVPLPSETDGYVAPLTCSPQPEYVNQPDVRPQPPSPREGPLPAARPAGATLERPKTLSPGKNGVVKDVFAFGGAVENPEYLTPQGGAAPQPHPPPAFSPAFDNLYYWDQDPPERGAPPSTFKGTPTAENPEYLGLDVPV
How it was run: (§1)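 Fluorescence read-out (ex 540/em 590 nm) after 3 h Alamar Blue incubation, following 72 h compound exposure at 37 °C, 5% CO2. Final compound range 10–0.0005 μM, 3-fold steps; Ba/F3 cells plated 15,000/well in RPMI + 10% FBS overnight beforehand.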

[2] = system: H1975 cells (L858R_T790M mutant); assay: H1975 proliferation assay; format: cell-based; conditions: Homo sapiens, NCI-H1975; read-out: Proliferation_Assay H1975 cells-EC50_nM L858R_T790M_mutant
[3] = target: EGFR (A767_dupASV) expressing Ba/F3 stable cell line (Homo sapiens, UniProt P00533, DUP767-769, cells depend on it); assay: Cellular proliferation (Alamar Blue) assay, EGFR A767_dupASV Ba/F3; format: cell-based; conditions: EGFR A767_dupASV Ba/F3, 72 hr, read-out: A767 IC50
EGFR (A767_dupASV) expressing Ba/F3 stable cell line, sequence (P00533 with tags, fused parts or gaps DUP767-769): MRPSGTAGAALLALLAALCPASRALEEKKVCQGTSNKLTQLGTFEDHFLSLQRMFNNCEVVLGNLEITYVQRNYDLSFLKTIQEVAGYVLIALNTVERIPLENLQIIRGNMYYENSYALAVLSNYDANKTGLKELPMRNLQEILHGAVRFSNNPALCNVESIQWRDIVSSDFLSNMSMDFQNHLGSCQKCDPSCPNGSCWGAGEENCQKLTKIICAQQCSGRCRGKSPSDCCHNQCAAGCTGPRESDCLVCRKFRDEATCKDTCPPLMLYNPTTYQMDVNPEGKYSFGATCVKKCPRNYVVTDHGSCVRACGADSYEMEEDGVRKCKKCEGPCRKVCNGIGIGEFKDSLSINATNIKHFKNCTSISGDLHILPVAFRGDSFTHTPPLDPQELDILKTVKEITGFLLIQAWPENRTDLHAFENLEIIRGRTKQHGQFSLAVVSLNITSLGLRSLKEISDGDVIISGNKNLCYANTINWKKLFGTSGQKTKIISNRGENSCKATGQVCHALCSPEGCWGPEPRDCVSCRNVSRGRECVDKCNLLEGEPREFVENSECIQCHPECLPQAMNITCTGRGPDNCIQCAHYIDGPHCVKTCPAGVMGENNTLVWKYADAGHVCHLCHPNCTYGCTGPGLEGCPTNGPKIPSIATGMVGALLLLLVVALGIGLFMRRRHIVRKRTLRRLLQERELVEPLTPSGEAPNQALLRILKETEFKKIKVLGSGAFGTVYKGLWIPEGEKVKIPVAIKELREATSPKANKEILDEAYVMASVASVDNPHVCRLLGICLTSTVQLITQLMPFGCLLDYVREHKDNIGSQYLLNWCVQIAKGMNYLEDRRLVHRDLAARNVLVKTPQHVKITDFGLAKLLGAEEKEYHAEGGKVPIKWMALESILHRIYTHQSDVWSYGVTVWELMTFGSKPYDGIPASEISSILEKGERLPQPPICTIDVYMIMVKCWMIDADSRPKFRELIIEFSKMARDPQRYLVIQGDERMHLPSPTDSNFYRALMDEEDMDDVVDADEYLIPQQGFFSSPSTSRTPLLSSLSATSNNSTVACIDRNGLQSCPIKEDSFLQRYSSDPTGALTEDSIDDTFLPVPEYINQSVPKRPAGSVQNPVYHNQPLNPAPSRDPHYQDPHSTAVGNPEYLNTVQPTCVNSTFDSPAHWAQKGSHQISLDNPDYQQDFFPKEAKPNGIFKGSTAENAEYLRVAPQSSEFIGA
How it was run: as §1

[4] = target: EGFR(D770_N771insSVD) expressing Ba/F3 stable cell line (Homo sapiens, UniProt P00533, DUP768-770, cells depend on it); assay: Cellular proliferation (Alamar Blue) assay, EGFR D770_N771insSVD Ba/F3; format: cell-based; conditions: EGFR D770_N771insSVD Ba/F3, 72 hr, read-out: D770 IC50
EGFR(D770_N771insSVD) expressing Ba/F3 stable cell line, sequence (P00533 with tags, fused parts or gaps DUP768-770): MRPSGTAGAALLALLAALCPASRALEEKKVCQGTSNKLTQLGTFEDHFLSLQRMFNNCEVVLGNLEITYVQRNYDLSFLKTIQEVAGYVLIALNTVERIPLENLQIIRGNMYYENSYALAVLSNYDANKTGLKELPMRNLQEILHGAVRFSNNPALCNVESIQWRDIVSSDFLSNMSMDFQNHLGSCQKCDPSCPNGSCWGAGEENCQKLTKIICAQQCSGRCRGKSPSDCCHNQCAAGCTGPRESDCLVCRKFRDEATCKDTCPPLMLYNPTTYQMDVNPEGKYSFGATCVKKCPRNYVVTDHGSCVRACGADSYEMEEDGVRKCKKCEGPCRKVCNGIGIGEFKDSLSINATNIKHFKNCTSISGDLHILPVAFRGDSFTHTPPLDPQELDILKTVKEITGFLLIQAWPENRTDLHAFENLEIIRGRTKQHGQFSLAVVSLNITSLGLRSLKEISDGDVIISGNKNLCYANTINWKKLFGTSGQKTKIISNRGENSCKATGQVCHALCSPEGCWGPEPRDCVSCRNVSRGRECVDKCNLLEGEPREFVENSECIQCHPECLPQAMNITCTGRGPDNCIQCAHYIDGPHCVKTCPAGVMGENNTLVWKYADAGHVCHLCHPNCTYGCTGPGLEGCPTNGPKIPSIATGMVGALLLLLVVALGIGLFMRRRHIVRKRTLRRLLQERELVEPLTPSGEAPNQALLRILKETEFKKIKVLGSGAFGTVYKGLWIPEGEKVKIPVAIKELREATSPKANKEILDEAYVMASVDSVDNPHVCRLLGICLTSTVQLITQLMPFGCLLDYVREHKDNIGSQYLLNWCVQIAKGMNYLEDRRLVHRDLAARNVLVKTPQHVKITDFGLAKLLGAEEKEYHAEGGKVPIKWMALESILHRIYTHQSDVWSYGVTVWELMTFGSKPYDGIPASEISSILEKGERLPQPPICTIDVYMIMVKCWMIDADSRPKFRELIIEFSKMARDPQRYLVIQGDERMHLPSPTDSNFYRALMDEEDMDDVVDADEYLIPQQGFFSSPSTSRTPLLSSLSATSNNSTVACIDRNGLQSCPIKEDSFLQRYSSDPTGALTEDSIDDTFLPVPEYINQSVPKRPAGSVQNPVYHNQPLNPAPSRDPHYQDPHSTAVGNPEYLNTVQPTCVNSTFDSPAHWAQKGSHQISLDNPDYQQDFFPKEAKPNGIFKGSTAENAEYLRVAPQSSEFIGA
How it was run: as §1

EGFR (T790M/L858R) = target: T1, EGFR (T790M/L858R) (Homo sapiens, UniProt P00533, L858R/T790M); assay: EGFR L858R/T790M enzyme inhibition assay (HTRF); format: biochemical; conditions: 5 μM ATP, 60 min, read-out: EGFR_L858R T790M_IC50_nM
T1 construct: GST; purchased Proqinase
T1 sequence (P00533 25-1210 T790M/L858R): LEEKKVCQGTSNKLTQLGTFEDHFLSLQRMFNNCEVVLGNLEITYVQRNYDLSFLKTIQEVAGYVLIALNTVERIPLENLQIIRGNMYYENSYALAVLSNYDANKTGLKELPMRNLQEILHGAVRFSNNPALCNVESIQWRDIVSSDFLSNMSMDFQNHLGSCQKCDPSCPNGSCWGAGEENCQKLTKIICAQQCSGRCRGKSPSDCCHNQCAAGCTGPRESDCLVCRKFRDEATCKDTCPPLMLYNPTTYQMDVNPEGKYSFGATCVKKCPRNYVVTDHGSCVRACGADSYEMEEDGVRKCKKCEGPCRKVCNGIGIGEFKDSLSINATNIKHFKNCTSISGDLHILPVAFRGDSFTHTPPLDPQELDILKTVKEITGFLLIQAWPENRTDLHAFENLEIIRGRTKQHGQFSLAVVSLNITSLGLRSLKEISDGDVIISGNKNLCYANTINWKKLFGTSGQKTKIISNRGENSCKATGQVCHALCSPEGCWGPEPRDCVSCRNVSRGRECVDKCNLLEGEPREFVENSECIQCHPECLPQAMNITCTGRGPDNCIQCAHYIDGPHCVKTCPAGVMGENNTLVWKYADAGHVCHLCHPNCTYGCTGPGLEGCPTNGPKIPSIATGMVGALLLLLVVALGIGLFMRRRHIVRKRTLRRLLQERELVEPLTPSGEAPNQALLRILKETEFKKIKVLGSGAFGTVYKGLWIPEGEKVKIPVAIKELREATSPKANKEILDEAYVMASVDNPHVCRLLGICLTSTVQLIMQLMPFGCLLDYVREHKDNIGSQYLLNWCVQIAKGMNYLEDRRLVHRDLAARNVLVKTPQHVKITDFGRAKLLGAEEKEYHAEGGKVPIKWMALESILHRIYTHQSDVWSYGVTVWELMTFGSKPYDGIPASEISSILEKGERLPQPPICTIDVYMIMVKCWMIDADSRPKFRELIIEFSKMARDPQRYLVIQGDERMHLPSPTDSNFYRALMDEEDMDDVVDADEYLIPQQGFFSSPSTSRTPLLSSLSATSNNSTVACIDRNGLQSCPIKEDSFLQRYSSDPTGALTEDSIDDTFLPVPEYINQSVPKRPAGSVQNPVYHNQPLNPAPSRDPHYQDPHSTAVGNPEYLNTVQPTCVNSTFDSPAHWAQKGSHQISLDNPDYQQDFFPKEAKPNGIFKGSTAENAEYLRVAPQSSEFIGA
How it was run: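 HTRF kinase assay with 2.5 nM GST-EGFR T790M/L858R, 0.5 μM biotinylated gastrin peptide and 5 μM ATP in HEPES pH 7.4 with Mg/Mn, 60 min at room temperature; compounds from 10 μM top. Phosphotyrosine detected by Eu anti-pTyr/SA-APC; IC50 from % inhibition.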

SMILES	IC50 (A431 cells) [µM]	GI50 [1] [µM]	EC50 [2] [µM]	GI50 [3] [µM]	GI50 [4] [µM]	IC50 (EGFR (T790M/L858R)) [µM]
Cc1nn(C)cc1Nc1ncc2c(n1)N(c1cccc(NC(=O)/C=C/CN(C)C)c1)C(=O)N(Cc1ccccc1)C2 [Compound 23, (E)-N-(3-(3-benzyl-7-((1,3-dimethyl-1H-pyrazol-4-yl)amino)-2-oxo-3,4-dihydropyrimido[4,5-d]pyrimidin-1(2H)-yl)phenyl)-4-(dimethylamino)but-2-enamide]	0.018	–	0.0064	0.124	0.299	0.003
Cc1csc(Nc2ncc3c(n2)N(C2CCCC(NC(=O)/C=C/CN(C)C)C2)C(=O)N(Cc2ccccc2)C3)n1 (centres unmarked) [Compound 29, (E)-N-(3-(3-benzyl-7-((4-methylthiazol-2-yl)amino)-2-oxo-3,4-dihydropyrimido[4,5-d]pyrimidin-1(2H)-yl)cyclohexyl)-4-(dimethylamino)but-2-enamide]	4.09	–	1.08	2.6	0.431	0.66
CN(C)C/C=C/C(=O)NC1CCCC(N2C(=O)N(Cc3ccccc3)Cc3cnc(Nc4cnn(C)c4)nc32)C1 (centres unmarked) [Compound 31, (E)-N-(3-(3-benzyl-7-((1-methyl-1H-pyrazol-4-yl)amino)-2-oxo-3,4-dihydropyrimido[4,5-d]pyrimidin-1(2H)-yl)cyclohexyl)-4-(dimethylamino)but-2-enamide]	1.97	–	0.299	3.32	3.48	0.281
C=CC(=O)NC1CCCC(N2C(=O)N(Cc3ccccc3)Cc3cnc(Nc4cn(C)nc4Cl)nc32)C1 (centres unmarked) [Compound 40, N-(3-(3-benzyl-7-((3-chloro-1-methyl-1H-pyrazol-4-yl)amino)-2-oxo-3,4-dihydropyrimido[4,5-d]pyrimidin-1(2H)-yl)cyclohexyl)acrylamide]	≥ 10	–	0.323	1.7	1.87	0.098
CN(C)C/C=C/C(=O)Nc1cccc(N2C(=O)N(Cc3ccccc3)Cc3cnc(Nc4ccc5c(c4)cc(C#N)n5C)nc32)c1 [Compound 44, (E)-N-(3-(3-benzyl-7-((2-cyano-1-methyl-1H-indol-5-yl)amino)-2-oxo-3,4-dihydropyrimido[4,5-d]pyrimidin-1(2H)-yl)phenyl)-4-(dimethylamino)but-2-enamide]	0.056	–	0.0376	0.123	0.106	0.009
CN(C)C/C=C/C(=O)Nc1cccc(N2C(=O)N(Cc3ccccc3)Cc3cnc(Nc4ccc5cnn(C)c5c4)nc32)c1 [Compound 45, (E)-N-(3-(3-benzyl-7-((1-methyl-1H-indazol-6-yl)amino)-2-oxo-3,4-dihydropyrimido[4,5-d]pyrimidin-1(2H)-yl)phenyl)-4-(dimethylamino)but-2-enamide]	1.13	–	0.0467	0.352	0.35	0.011
Cc1csc(Nc2ncc3c(n2)N(c2cccc(NC(=O)/C=C/CN(C)C)c2)C(=O)N(Cc2ccccc2)C3)n1 [Compound 48, (E)-N-(3-(3-benzyl-7-((4-methylthiazol-2-yl)amino)-2-oxo-3,4-dihydropyrimido[4,5-d]pyrimidin-1(2H)-yl)phenyl)-4-(dimethylamino)but-2-enamide]	0.148	–	0.133	0.456	0.361	0.0035
Cn1cc(Nc2ncc3c(n2)N(c2cccc(NC(=O)/C=C/Cl)c2)C(=O)N(Cc2ccccc2)C3)cn1 [Compound 50, (E)-N-(3-(3-benzyl-7-((1-methyl-1H-pyrazol-4-yl)amino)-2-oxo-3,4-dihydropyrimido[4,5-d]pyrimidin-1(2H)-yl)phenyl)-3-chloroacrylamide]	5.38	–	4.2	1.35	8.72	0.0004

Further lines, results first:

IC50 (A431 cells) [µM]	GI50 [1] [µM]	EC50 [2] [µM]	GI50 [3] [µM]	GI50 [4] [µM]	IC50 (EGFR (T790M/L858R)) [µM]	SMILES
1.89	0.011	0.0081	0.009	0.009	0.001	C=CC(=O)Nc1cccc(N2C(=O)N(Cc3ccccc3)Cc3cnc(Nc4cn(CC(F)(F)F)nc4C)nc32)c1 [Compound 6, N-(3-(3-benzyl-7-((3-methyl-1-(2,2,2-trifluoroethyl)-1H-pyrazol-4-yl)amino)-2-oxo-3,4-dihydropyrimido[4,5-d]pyrimidin-1(2H)-yl)phenyl)acrylamide]
6.87	0.038	0.0176	0.103	0.114	0.004	CC(C)n1cc(Nc2ncc3c(n2)N(c2cccc(NC(=O)/C=C/CN(C)C)c2)C(=O)N(Cc2ccccc2)C3)cn1 [Compound 9, (E)-N-(3-(3-benzyl-7-((1-isopropyl-1H-pyrazol-4-yl)amino)-2-oxo-3,4-dihydropyrimido[4,5-d]pyrimidin-1(2H)-yl)phenyl)-4-(dimethylamino)but-2-enamide]
8.34	–	0.071	0.356	0.34	0.053	C=CC(=O)NC1CCCC(N2C(=O)N(Cc3ccccc3)Cc3cnc(Nc4cnn(C)c4)nc32)C1 (centres unmarked) [Compound 24, N-(3-(3-benzyl-7-((1-methyl-1H-pyrazol-4-yl)amino)-2-oxo-3,4-dihydropyrimido[4,5-d]pyrimidin-1(2H)-yl)cyclohexyl)acrylamide]
0.083	–	0.029	0.32	0.069	0.003	C=CC(=O)Nc1cccc(N2C(=O)N(Cc3ccccc3)Cc3cnc(Nc4nc(C)cs4)nc32)c1 [Compound 25, N-(3-(3-benzyl-7-((4-methylthiazol-2-yl)amino)-2-oxo-3,4-dihydropyrimido[4,5-d]pyrimidin-1(2H)-yl)phenyl)acrylamide]
3.08	–	0.222	3.33	3.69	0.005	CN(C)C/C=C/C(=O)Nc1cccc(N2C(=O)N(Cc3ccccc3)Cc3cnc(Nc4cn(C)nn4)nc32)c1 [Compound 26, (E)-N-(3-(3-benzyl-7-((1-methyl-1H-1,2,3-triazol-4-yl)amino)-2-oxo-3,4-dihydropyrimido[4,5-d]pyrimidin-1(2H)-yl)phenyl)-4-(dimethylamino)but-2-enamide]
4.4	–	≥ 10	9.19	≥ 10	0.303	Cc1cnc(Nc2ncc3c(n2)N(C2CCCC(NC(=O)/C=C/CN(C)C)C2)C(=O)N(Cc2ccccc2)C3)s1 (centres unmarked) [Compound 27, (E)-N-(3-(3-benzyl-7-((5-methylthiazol-2-yl)amino)-2-oxo-3,4-dihydropyrimido[4,5-d]pyrimidin-1(2H)-yl)cyclohexyl)-4-(dimethylamino)but-2-enamide]
0.92	–	0.413	2.81	2.57	0.164	C=CC(=O)NC1CCCC(N2C(=O)N(Cc3ccccc3)Cc3cnc(Nc4ncc(C)s4)nc32)C1 (centres unmarked) [Compound 30, N-(3-(3-benzyl-7-((5-methylthiazol-2-yl)amino)-2-oxo-3,4-dihydropyrimido[4,5-d]pyrimidin-1(2H)-yl)cyclohexyl)acrylamide]
1.37	–	0.176	2.91	2.88	0.082	Cc1cc(Nc2ncc3c(n2)N(C2CCCC(NC(=O)/C=C/CN(C)C)C2)C(=O)N(Cc2ccccc2)C3)sn1 (centres unmarked) [Compound 32, (E)-N-(3-(3-benzyl-7-((3-methylisothiazol-5-yl)amino)-2-oxo-3,4-dihydropyrimido[4,5-d]pyrimidin-1(2H)-yl)cyclohexyl)-4-(dimethylamino)but-2-enamide]
0.632	–	0.0063	0.103	0.108	0.0038	CN(C)C/C=C/C(=O)Nc1cccc(N2C(=O)N(Cc3ccccc3)Cc3cnc(Nc4ccc5c(cnn5C)c4)nc32)c1 [Compound 43, (E)-N-(3-(3-benzyl-7-((1-methyl-1H-indazol-5-yl)amino)-2-oxo-3,4-dihydropyrimido[4,5-d]pyrimidin-1(2H)-yl)phenyl)-4-(dimethylamino)but-2-enamide]
≥ 10	–	0.819	2.26	≥ 10	0.0009	C=CS(=O)(=O)Nc1cccc(N2C(=O)N(Cc3ccccc3)Cc3cnc(Nc4cnn(C)c4)nc32)c1 [Compound 47, N-(3-(3-benzyl-7-((1-methyl-1H-pyrazol-4-yl)amino)-2-oxo-3,4-dihydropyrimido[4,5-d]pyrimidin-1(2H)-yl)phenyl)ethenesulfonamide]
